From patent publication US11584714B2 (priority 2018, dated 2023) come the findings set out here.

Molecules are shown by their SMILES. Counter-ions that a name gives are not always drawn. Like-named read-outs stand apart in the source and are kept apart here.

Type in all cases: biochemical
One assay deals with Lectin Pathway. Description: Lectin pathway activation assay in human serum (mannan-coated ELISA, C3c detection). The note with it: 1% human serum. (In general: In an ELISA, binding on a coated surface is turned into a signal by an enzyme label.)
Another assay concerns the target MASP-2 (CCP1-CCP2-SP) (Homo sapiens (Human), UniProt O00187). Description: biochemical. As to conditions: for MASP-2 vs. thrombin selectivity: selectivity for MASP-2 inhibition versus thrombin.
The target in a further assay is human α-thrombin (Homo sapiens (Human), UniProt P00734). Description: Enzymatic assay for thrombin (Boc-VPR-AMC substrate).
For a further assay, the target named is mMASP-2 (Mus musculus (Mouse), UniProt Q91WP0). Description: Enzymatic inhibition of mMASP-2.
mMASP-2, sequence (Q91WP0 20-685): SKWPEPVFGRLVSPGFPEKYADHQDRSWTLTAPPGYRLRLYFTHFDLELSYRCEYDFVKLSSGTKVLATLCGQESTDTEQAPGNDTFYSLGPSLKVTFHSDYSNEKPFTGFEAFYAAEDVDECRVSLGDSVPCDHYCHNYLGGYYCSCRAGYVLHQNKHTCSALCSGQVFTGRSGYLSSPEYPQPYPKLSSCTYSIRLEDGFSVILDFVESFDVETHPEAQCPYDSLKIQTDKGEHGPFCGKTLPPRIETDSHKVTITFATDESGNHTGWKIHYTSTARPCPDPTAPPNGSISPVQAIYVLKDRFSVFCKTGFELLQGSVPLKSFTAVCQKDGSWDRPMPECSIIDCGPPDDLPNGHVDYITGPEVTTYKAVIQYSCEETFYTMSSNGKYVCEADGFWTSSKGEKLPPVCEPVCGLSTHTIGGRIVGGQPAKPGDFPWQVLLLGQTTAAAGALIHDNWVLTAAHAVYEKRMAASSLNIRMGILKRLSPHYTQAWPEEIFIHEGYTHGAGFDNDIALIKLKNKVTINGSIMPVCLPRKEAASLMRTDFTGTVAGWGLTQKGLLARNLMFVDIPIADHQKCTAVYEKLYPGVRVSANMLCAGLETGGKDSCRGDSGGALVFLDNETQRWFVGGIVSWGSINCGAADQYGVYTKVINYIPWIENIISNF

MASP-2 (CCP1-CCP2-SP), sequence (O00187 445-686): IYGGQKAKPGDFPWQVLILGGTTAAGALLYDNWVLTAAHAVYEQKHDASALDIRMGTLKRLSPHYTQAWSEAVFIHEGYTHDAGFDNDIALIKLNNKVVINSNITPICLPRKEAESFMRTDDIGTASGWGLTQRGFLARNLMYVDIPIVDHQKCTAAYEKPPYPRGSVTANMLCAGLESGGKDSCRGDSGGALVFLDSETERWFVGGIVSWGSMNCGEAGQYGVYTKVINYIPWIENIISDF

Turning to `CC(=O)Nc1ccc(CCN[C@H](CCc2ccccc2)C(=O)N[C@@H](C)C(=O)NCc2ccc(C(=N)N)cc2)cc1` [compound 1345, (R)-2-((4-acetamidophenethyl)amino)-N-((S)-1-((4-carbamimidoylbenzyl)amino)-1-oxopropan-2-yl)-4-phenylbutanamide dihydrochloride], the IC50 in the assay with Lectin Pathway is less than 0.05 µM. Also, the Ki on MASP-2 (CCP1-CCP2-SP) (read-out: MASP-2 Ki), on human α-thrombin (read-out: Thrombin Ki) and at mMASP-2 (read-out: mMASP-2 Ki) was less than 0.5 µM in each case. The “MASP-2 vs. thrombin selectivity” value at MASP-2 (CCP1-CCP2-SP) is “**** (≥100-fold)”.
Regarding `Cc1nc(N)ccc1CNC(=O)[C@H](C)NC(=O)[C@H]1CN(Cc2ccccc2)CCN1` [compound 1347, (R)—N—((S)-1-(((6-Amino-2-methylpyridin-3-yl)methyl)amino)-1-oxopropan-2-yl)-4-benzylpiperazine-2-carboxamide Dihydrochloride], in the assay with Lectin Pathway, the IC50 was less than 0.05 µM. For the same compound, the Ki on MASP-2 (CCP1-CCP2-SP) (read-out: MASP-2 Ki) is less than 0.5 µM; at human α-thrombin (Thrombin Ki (μM)), 0.5 to 2.5 µM; on mMASP-2 (read-out: mMASP-2 Ki) it was less than 0.5 µM. Also, the “MASP-2 vs. thrombin selectivity” value on MASP-2 (CCP1-CCP2-SP) is on record as “*** (≥25 to <100-fold)”.
In the assay with Lectin Pathway, `Cc1ccccc1CN1CCN[C@@H](C(=O)N[C@@H](C)C(=O)NCc2ccc(N)nc2C)C1` [compound 1348, (R)—N—((S)-1-(((6-Amino-2-methylpyridin-3-yl)methyl)amino)-1-oxopropan-2-yl)-4-(2-methylbenzyl)piperazine-2-carboxamide Dihydrochloride] had an IC50 of less than 0.05 µM. Further, the Ki at MASP-2 (CCP1-CCP2-SP) (read-out: MASP-2 Ki), at human α-thrombin (read-out: Thrombin Ki) and at mMASP-2 (read-out: mMASP-2 Ki) was less than 0.5 µM each time. The “MASP-2 vs. thrombin selectivity” value on MASP-2 (CCP1-CCP2-SP) is “*** (≥25 to <100-fold)”.
In turn, `Cc1nc(N)ccc1CNC(=O)[C@H](C)NC(=O)[C@H]1C[C@H](Cc2ccc(Br)cc2)CN1` [compound 1350, (2R,4S)—N—((S)-1-(((6-Amino-2-methylpyridin-3-yl)methyl)amino)-1-oxopropan-2-yl)-4-(4-bromobenzyl)pyrrolidine-2-carboxamide Dihydrochloride] returned an IC50 with Lectin Pathway of 0.5 to 5 µM. For the same compound, the Ki on MASP-2 (CCP1-CCP2-SP) (read-out: MASP-2 Ki) is less than 0.5 µM; on human α-thrombin (Thrombin Ki (μM)), 2.5 to 10 µM; on mMASP-2 (read-out: mMASP-2 Ki), less than 0.5 µM. In addition, at MASP-2 (CCP1-CCP2-SP), the “MASP-2 vs. thrombin selectivity” value is on record as “**** (≥100-fold)”.
The compound `C[C@H](NC(=O)[C@@H](CCc1ccccc1)NCCc1cccc(OC(F)(F)F)c1)C(=O)NCc1ccc(C(=N)N)cc1` [compound 1352, (R)—N—((S)-1-((4-Carbamimidoylbenzyl)amino)-1-oxopropan-2-yl)-4-phenyl-2-((3-(trifluoromethoxy)phenethyl)amino)butanamide Di-trifluoroacetate salt] registered an IC50 with Lectin Pathway of 0.05 to 0.5 µM. Also, the Ki at MASP-2 (CCP1-CCP2-SP) (read-out: MASP-2 Ki) was less than 0.5 µM; at human α-thrombin (Thrombin Ki (μM)) it was 0.5 to 2.5 µM; on mMASP-2 (read-out: mMASP-2 Ki), less than 0.5 µM. The “MASP-2 vs. thrombin selectivity” value at MASP-2 (CCP1-CCP2-SP) is on record as “*** (≥25 to <100-fold)”.
As to `Cc1nc(N)ccc1CNC(=O)[C@H](C)NC(=O)[C@H]1C[C@@H](Cc2ccccc2)CCN1` [compound 1353, (2R,4S)—N—((S)-1-(((6-Amino-2-methylpyridin-3-yl)methyl)amino)-1-oxopropan-2-yl)-4-benzylpiperidine-2-carboxamide Dihydrochloride], the IC50 with Lectin Pathway was less than 0.05 µM. Besides, the Ki at MASP-2 (CCP1-CCP2-SP) (read-out: MASP-2 Ki), at human α-thrombin (read-out: Thrombin Ki) and at mMASP-2 (read-out: mMASP-2 Ki) was less than 0.5 µM in each case. At MASP-2 (CCP1-CCP2-SP), the “MASP-2 vs. thrombin selectivity” value is recorded as “*** (≥25 to <100-fold)”.
Regarding `Cc1nc(N)ccc1CNC(=O)[C@H](C)NC(=O)[C@H]1C[C@H](Cc2ccc(-c3nccs3)cc2)CN1` [compound 1361, (2R,4S)—N—((S)-1-(((6-Amino-2-methylpyridin-3-yl)methyl)amino)-1-oxopropan-2-yl)-4-(4-(thiazol-2-yl)benzyl)pyrrolidine-2-carboxamide Di-trifluoroacetate salt], the IC50 with Lectin Pathway was less than 0.05 µM. The values for the Ki on MASP-2 (CCP1-CCP2-SP) (read-out: MASP-2 Ki), on human α-thrombin (read-out: Thrombin Ki) and on mMASP-2 (read-out: mMASP-2 Ki) were less than 0.5 µM, more than 25 µM and less than 0.5 µM, respectively. The “MASP-2 vs. thrombin selectivity” value on MASP-2 (CCP1-CCP2-SP) is listed as “**** (≥100-fold)”.
As to `Cc1cc(Cl)cc(CNC(=O)[C@H](C)NC(=O)[C@H]2C[C@@H](Cc3ccccc3)CCN2)c1O` [compound 1363, (2R,4S)-4-Benzyl-N-((S)-1-((5-chloro-2-hydroxy-3-methylbenzyl)amino)-1-oxopropan-2-yl)piperidine-2-carboxamide Hydrochloride], the IC50 in the assay on Lectin Pathway was 0.05 to 0.5 µM. In addition, the Ki is less than 0.5 µM on MASP-2 (CCP1-CCP2-SP) (read-out: MASP-2 Ki), 2.5 to 10 µM at human α-thrombin (Thrombin Ki (μM)) and less than 0.5 µM at mMASP-2 (read-out: mMASP-2 Ki). Also, the “MASP-2 vs. thrombin selectivity” value at MASP-2 (CCP1-CCP2-SP) is on record as “**** (≥100-fold)”.
In the case of `Cc1cc(Cl)cc(CNC(=O)[C@H](C)NC(=O)[C@H]2C[C@H](Cc3ccc4ccccc4c3)CN2)c1O` [compound 1370, (2R,4S)—N—((S)-1-((5-Chloro-2-hydroxy-3-methylbenzyl)amino)-1-oxopropan-2-yl)-4-(naphthalen-2-ylmethyl)pyrrolidine-2-carboxamide], the IC50 in the assay on Lectin Pathway is 0.05 to 0.5 µM. Besides, the Ki is less than 0.5 µM at MASP-2 (CCP1-CCP2-SP) (read-out: MASP-2 Ki), more than 25 µM on human α-thrombin (read-out: Thrombin Ki) and 0.5 to 2.5 µM at mMASP-2.
As for `C[C@H](NC(=O)[C@H]1C[C@H](Cc2ccccc2)CN1)C(=O)NCc1cc(Cl)ccc1-n1cnnn1` [compound 1371, (2R,4S)-4-Benzyl-N-((S)-1-((5-chloro-2-(1H-tetrazol-1-yl)benzyl)amino)-1-oxopropan-2-yl)pyrrolidine-2-carboxamide Hydrochloride], the IC50 in the assay with Lectin Pathway was in the range of 0.05 to 0.5 µM. Also, the Ki at MASP-2 (CCP1-CCP2-SP) (read-out: MASP-2 Ki) is less than 0.5 µM; on human α-thrombin (read-out: Thrombin Ki), less than 0.5 µM; on mMASP-2 (read-out: mMASP-2 Ki), 0.5 to 2.5 µM. The “MASP-2 vs. thrombin selectivity” value at MASP-2 (CCP1-CCP2-SP) is recorded as “−− (<1.0-fold)”.
In the assay on Lectin Pathway, `Cc1nc(N)ccc1CNC(=O)[C@H](C)NC(=O)[C@H]1C[C@H](Cc2ccccc2Br)CN1` [compound 1372, (2R,4S)—N—((S)-1-(((6-Amino-2-methylpyridin-3-yl)methyl)amino)-1-oxopropan-2-yl)-4-(2-bromobenzyl)pyrrolidine-2-carboxamide Di-trifluoroacetate salt] returned an IC50 of 0.05 to 0.5 µM. Besides, the inhibition constant (Ki) at MASP-2 (CCP1-CCP2-SP) (read-out: MASP-2 Ki), on human α-thrombin (read-out: Thrombin Ki) and on mMASP-2 (read-out: mMASP-2 Ki) was less than 0.5 µM in each case. For the same compound, the “MASP-2 vs. thrombin selectivity” value on MASP-2 (CCP1-CCP2-SP) is listed as “** (≥5.0 to <25-fold)”.
For the compound `Cc1nc(N)ccc1CNC(=O)[C@H](C)NC(=O)[C@@H](CCc1ccccc1)NCc1ccc(Cl)cc1` [compound 1375, (R)—N—((S)-1-(((6-Amino-2-methylpyridin-3-yl)methyl)amino)-1-oxopropan-2-yl)-2-((4-chlorobenzyl)amino)-4-phenylbutanamide], the IC50 with Lectin Pathway was 0.5 to 5 µM. The Ki at MASP-2 (CCP1-CCP2-SP) fell in the range of 0.5 to 2.5 µM; on human α-thrombin (Thrombin Ki (μM)) it was 10 to 25 µM; at mMASP-2 (read-out: mMASP-2 Ki) it was 10 to 25 µM. Besides, the “MASP-2 vs. thrombin selectivity” value on MASP-2 (CCP1-CCP2-SP) is “** (≥5.0 to <25-fold)”.
Take `C[C@H](NC(=O)[C@H]1C[C@H](Cc2ccc(C3CCC3)cc2)CN1)C(=O)NCc1cnc2[nH]cc(Cl)c2c1` [compound 1378, (2R,4S)—N—((S)-1-(((3-Chloro-1H-pyrrolo[2,3-b]pyridin-5-yl)methyl)amino)-1-oxopropan-2-yl)-4-(4-cyclobutylbenzyl)pyrrolidine-2-carboxamide Di-trifluoroacetate salt]: the IC50 with Lectin Pathway was 0.5 to 5 µM. In addition, the Ki is less than 0.5 µM on MASP-2 (CCP1-CCP2-SP) (read-out: MASP-2 Ki), 0.5 to 2.5 µM at human α-thrombin (Thrombin Ki (μM)) and less than 0.5 µM at mMASP-2 (read-out: mMASP-2 Ki). Further, at MASP-2 (CCP1-CCP2-SP), the “MASP-2 vs. thrombin selectivity” value is “* (≥1.0 to <5.0-fold)”.

The IC50 is the concentration at which inhibition is half-maximal. The low end stands for higher potency, the high end for lower potency. As usually defined, the Ki is a dissociation constant, usually derived from enzyme kinetics or from competition with a known ligand.
